Entries after “also recorded” stand apart in the source; their conditions may differ.
Test system: cGMP levels in the striatum
Assay: Microdialysis PD: cGMP in striatal extracellular dialysate
Type: in vivo, mouse
Settings: male R6/2
Method: Microdialysis PK/PD studies were conducted at Brains Online, Inc. (San Francisco, CA, USA)
Male R6/2 (CBA/C57Bl/6 strain, CAG 120) mice aged 7-8 weeks (20 - 30 g; The Jackson Laboratory, USA) were used for the experiments. The animals were group housed in plastic cages (3-4 animals / cage) and had access to food and water ad libitum. Experiments were conducted in accordance with the declarations of Helsinki and were approved by the Institutional Animal Care and Use Committee of the University of California, San-Francisco.
Mice were anesthetized using isoflurane (2%, 800 mL/min O2). Bupivacain/epinephrine was used for local anesthesia. Carprophen was used peri-/post-operative as analgesia. The animals were placed in a stereotaxic frame (Kopf instruments, USA), and microdialysis probes were inserted into the striatum. Coordinates for the tips of the probes were for striatum: […] (AP) = +0.8 mm to bregma, lateral (L) = -1.7 mm to midline and ventral (V) = -4.0 mm to dura, the toothbar was set at 0.0 mm (Paxinos and Franklin, 2001). […] After surgery animals were kept individually in cages and provided food and water ad libitum. Animals were fasted the night before the experiment.
Experiments were performed one day after surgery. On the day of the experiment, the probes of the animals were connected with flexible PEEK tubing to a microperfusion pump (Syringe pump UV 8301501, Univentor, Malta). MQ probes were perfused with aCSF containing 0.2% albumin at a flow rate of 0.10 µL/min. As the carrier flow, ultrapurified H2O was used at a flow rate of 0.70 µL/min. I-shaped probes were perfused with aCSF at a flow rate of 1.5 µL/min. Microdialysis samples were collected for 30-minute periods by an automated fraction collector (CMA 142, Sweden) into mini-vials. Samples originating from I-shaped probes were collected into mini-vials already containing 15 µL of 0.02 M formic acid. 10 µL of 0.02 M formic acid was added in the samples originating from MQ probes. […] Following compound administration, microdialysate samples continued to be collected for 240 min at 30 minute intervals. All dialysis samples were stored at -80 °C.
Concentrations of cGMP were determined by HPLC with tandem mass spectrometry (MS/MS) detection. Standard samples were prepared in artificial dialysate matrix, consisting of 3 parts (v/v) aCSF mixed with 1 part 0.02M formic acid in ultrapurified H2O. Final concentrations of standard samples were 0.02, 0.05, 0.1, 0.2, 0.5, 1, 2, 5 and 10 nM. Quality control (QC) samples were prepared independently. Final concentrations were 0.3 (QClow), 0.75 (QCmid) and 7.5 (QChigh) nM. […]
Treatment effects were evaluated among different drug concentrations and also compared to baseline, using two-way ANOVA for repeated measurements followed by Student-Newman-Keuls post-hoc test. […]

In the case of CN1C(=O)c2nc(Cc3ccc(C(F)(F)F)cc3)[nH]c2N2C1=N[C@H]1CCC[C@H]12 [SCH-51866, (+)-cis-5,6a,7,8,9,9a-hexahydro-2-[4-[trifluro-methyl]phenylmethyl]-5-methyl-cylopent[4,5]imidazo [2,1-b]purin-4(3H)one], the “Elevation in cGMP in extracellular dialysate over baseline” value (from here on “Elevation in cGMP … over baseline”) (3 mg/kg po acute) is reported as “not”, the “Elevation in cGMP … over baseline” value (10 mg/kg po acute) is reported as “significantly elevated cGMP levels; also recorded: significant over baseline” and the “Elevation in cGMP … over baseline” value (30 mg/kg po acute) is reported as “significantly elevated cGMP levels; also recorded: significant over baseline”. For the same molecule, the “accumulation of cGMP versus dose” value (acute po) was “increased dose-proportionally”.

Source: article PMC3923778 (PLoS Currents, 2014)
